# According to US9745339B2 (GRAFFINITY PHARMACEUTICALS GMBH, priority 2012, dated 2017):
# Key:
# [1] = target: T1, Bevacizumab (Homo sapiens, UniProt P01857); assay: Uptake kinetics by batch adsorption (time-scale of binding); settings: time after which 80% of equilibrium saturation occurred; 0.75 mg/ml Bevacizumab in PBS, 25° C.
# T1 construct: 0.5 mg/ml IgG in PBS pH 7.3; ligand immobilized on SEPHAR; Bevacizumab Yield; other: mass eluted (glycine pH 2.5) / mass injected; kd (dissociation constant, Langmuir isotherm); other: Bevacizumab 0.05-5 mg/ml in PBS pH 7.3, 25° C., at least 3 h; qm (maximum capacity); other: mg Bevacizumab per ml of resin; Langmuir isotherm; t0; fused on or other part: Humanized anti-VEGF-A VH domain joined N-terminally to the IGHG1 constant region (engineered, no UniProt entry)
# Procedure: Uptake kinetics was investigated similarly by batch adsorption in 96-well filter plates. Again, 10 μl of sorbent slurry (50% v/v) were mixed with 100 μl of protein solution. […] Reactions were agitated vigorously at 25° C. for up to 80 min. Supernatants were separated rapidly by spinning through filters after 2.5, 5, 10, 20, 40 and 80 minutes and sampled for analysis. Concentrations of the antibody were analyzed by Bradford assay.
# For determination of t0.8, measured concentrations in the supernatant were interpolated by fitting of double-exponentials and values of t0.8 were read out from graphs (2).
# [2] = target: T1, Bevacizumab; assay: Dynamic binding capacity by column chromatography
# Procedure: Dynamic binding capacities were determined by column chromatography with purified Bevacizumab. Resins were packed into analytical columns of 25 mm length and 3 mm inner diameter. Columns were fed with 1 mg/ml antibody in phosphate-buffered saline (150 mM NaCl, 20 mM phosphate buffer, pH 7.3) at a flow rate of 50 cm/h (3 min column residence time), while the concentration of antibody in effluents was monitored online via absorbance at 280 nm. Antibody was loaded until complete breakthrough of the feed. Dynamic binding capacities were determined at the 10% breakthrough. Equilibrium capacities were determined by integration of the area above the breakthrough curve. Bound antibody was stripped from columns by elution with glycine at pH 3.0.
# It was calculated as the time t0.1 after which 10% breakthrough occurred, multiplied by the flow rate F and feed concentration cf. dynamiccapacity=t0.1·F·cf
# Equilibrium capacity is defined as the maximum amount of antibody that binds to a column for a given feed stream concentration. It was calculated by evaluation of the following integral
# [formula] containing the feed concentration cf, effluent concentration over time c(t) and flow rate F. The integral was evaluated numerically. Integration was limited to the time after which complete breakthrough had occurred. […]
# [3] = target: T1, Bevacizumab; assay: Langmuir isotherms by batch adsorption; assay type: binding; settings: for qm (maximum capacity): mg Bevacizumab per ml of resin, Langmuir isotherm; for Kd: Bevacizumab 0.05-5 mg/ml in PBS pH 7.3, 25° C., at least 3 h, read-out: kd (dissociation constant, Langmuir isotherm) (converted)
# [4] = target: T1, Bevacizumab; assay: Microtiter plate chromatography of resins: binding and elution of Bevacizumab; settings: for Bevacizumab Bound: fraction of injected protein bound, 0.5 mg/ml IgG in PBS pH 7.3, ligand immobilized on SEPHAROSE 4 FF; for Bevacizumab Yield: mass eluted (glycine pH 2.5) / mass injected
# How it was run: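 About 30 μl packed resin columns loaded with 3.3 cv IgG at 0.5 mg ml^−1 in PBS or undiluted HCP, washed with 5 cv PBS, eluted with 5 cv glycine pH 2.5. Protein in fractions by Bradford. Bound fraction = (injected − flowthrough)/injected; yield = eluted/injected; selectivity = Bevacizumab bound fraction / HCP bound fraction, truncated beyond 10.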
# [5] = tested on: Cetuximab; assay: Microtiter plate chromatography of resins: binding and elution of Cetuximab; settings: fraction of injected protein bound; 0.5 mg/ml IgG in PBS pH 7.3
# How it was run: (§1)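 About 30 μl resin columns loaded with 3.3 cv IgG at 0.5 mg ml^−1 in PBS (or undiluted HCP), washed with 5 cv PBS, eluted with 5 cv glycine pH 2.5. Fractions quantified by Bradford; bound fraction = (mi−mft)/mi, yield = me/mi.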
# [6] = Alkaline stability of ligands in 0.5 M sodium hydroxide; assay type: physicochemical; settings: 25° C., 8 days, hydrolysis monitored by LC-MS, read-out: t0.5 (half-life) (converted)
# Procedure: A subset of ligands from Example 1 was tested for its alkaline stability. Ligands were treated with 0.5 M sodium hydroxide at 25° C. for 8 days. Hydrolysis was monitored by LC-MS analysis.
# [7] = tested on: poly-IgG from human serum (h-poly-IgG); assay: Microtiter plate chromatography of resins: binding and elution of human poly-IgG; settings: fraction of injected protein bound; 0.5 mg/ml IgG in PBS pH 7.3
# How it was run: as §1
# [8] = tested on: Palivizumab; assay: Microtiter plate chromatography of resins: binding and elution of Palivizumab; settings: fraction of injected protein bound; 0.5 mg/ml IgG in PBS pH 7.3
# How it was run: as §1
# [9] = tested on: Tocilizumab; assay: Microtiter plate chromatography of resins: binding and elution of Tocilizumab; settings: fraction of injected protein bound; 0.5 mg/ml IgG in PBS pH 7.3
# How it was run: as §1
# [10] = tested on: host cell proteins (HCP); assay: Microtiter plate chromatography of resins: binding of host cell proteins; set-up: species or system CHO cell culture; settings: fraction of injected undiluted host cell proteins bound
# How it was run: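 Undiluted HCP-containing flowthrough from protein A chromatography of CHO serum-free culture was loaded onto ~30 µl packed resin columns in microtiter-plate format. Columns were washed with 5 cv PBS and eluted with glycine pH 2.5, and fractions were quantified by Bradford. Bound fraction = (injected − flowthrough mass)/injected mass.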
SMILES,t0.8 (time-scale of binding) [1] [min],"Dynamic Capacity ([2]; 10% breakthrough, 1 mg/ml Bevacizumab, 50 cm/h (3 min residence time)) [mg/mL]","Equilibrium Capacity ([2]; feed concentration 1 mg/ml Bevacizumab, integration above breakthrough curve) [mg/mL]",qm (maximum capacity) [3] [mg/mL],Bevacizumab Bound [4] [%],Bevacizumab Yield [4] [%],Cetuximab Bound [5] [%],half-life [6] [days],h-poly-IgG Bound [7] [%],Palivizumab Bound [8] [%],Tocilizumab Bound [9] [%],Kd [3] [µM],HCP Bound [10] [%]
"NCCCn1cnc2cc(C(=O)Nc3nnc(-c4ccco4)s3)ccc21 [Ligand L05, 1-(3-Amino-1-propyl)benzimidazole-5-carboxylic acid N-[5-(2-furyl)-1,3,4-thiadiazol-2-yl]amide]",9.8,25,39,47,100,101,100,> 41.6,100,100,100,–,17
"CCc1nc2cc(C(=O)Nc3nnc(-c4ccco4)s3)ccc2n1CCCN [Ligand L44, 1-(3-Amino-1-propyl)-2-ethylbenzimidazole-5-carboxylic acid N-[5-(2-furyl)-1,3,4-thiadiazol-2-yl] amide]",7.7,–,–,53,100,88,100,> 41.6,100,100,100,265,16
"NCCCn1cnc2cc(C(=O)Nc3nc(-c4cccnc4)cs3)ccc21 [Ligand L46, 1-(3-Amino-1-propyl)benzimidazole-5-carboxylic acid N-[4-(3-pyridyl)thiazol-2-yl] amide]",6.0,–,–,48,100,103,100,30,100,98,100,185,17
"NCCCn1cnc2cc(C(=O)Nc3nc(-c4ccncc4)cs3)ccc21 [Ligand L47, 1-(3-Amino-1-propyl)benzimidazole-5-carboxylic acid N-[4-(4-pyridyl)thiazol-2-yl] amide]",5.6,–,–,43,100,100,100,> 41.6,100,98,99,169,13

# The next lines start with results.
t0.8 (time-scale of binding) [1] [min],"Dynamic Capacity ([2]; 10% breakthrough, 1 mg/ml Bevacizumab, 50 cm/h (3 min residence time)) [mg/mL]","Equilibrium Capacity ([2]; feed concentration 1 mg/ml Bevacizumab, integration above breakthrough curve) [mg/mL]",qm (maximum capacity) [3] [mg/mL],Bevacizumab Bound [4] [%],Bevacizumab Yield [4] [%],Cetuximab Bound [5] [%],half-life [6] [days],h-poly-IgG Bound [7] [%],Palivizumab Bound [8] [%],Tocilizumab Bound [9] [%],Kd [3] [µM],SMILES,HCP Bound [10] [%]
7.8,–,–,49,100,85,100,> 41.6,100,100,100,–,"Cc1nc2cc(C(=O)Nc3nnc(-c4ccco4)s3)ccc2n1CCCN [Ligand L39, 1-(3-Amino-1-propyl)-2-methylbenzimidazole-5-carboxylic acid N-[5-(2-furyl)-1,3,4-thiadiazol-2-yl] amide]",10
9.2,–,–,39,100,101,100,32.6,98,89,99,–,"NCCCNc1ccc(C(=O)Nc2nc(-c3ccccn3)cs2)cn1 [Ligand L40, 6-[(3-Amino-1-propyl)amino]nicotinic acid N-[4-(2-pyridyl)thiazol-2-yl] amide]",20.5
7.6,–,–,45,100,98,100,> 41.6,100,97,100,318,"Cc1nc2cc(C(=O)Nc3nc(-c4ccccn4)cs3)ccc2n1CCCN [Ligand L42, 1-(3-Amino-1-propyl)-2-methylbenzimidazole-5-carboxylic acid N-[4-(2-pyridyl)thiazol-2-yl] amide]",13.5
8.2,–,–,43,100,95,100,> 41.6,100,98,100,399,"CCc1nc2cc(C(=O)Nc3nc(-c4ccccn4)cs3)ccc2n1CCCN [Ligand L43, 1-(3-Amino-1-propyl)-2-ethylbenzimidazole-5-carboxylic acid N-[4-(2-pyridyl)thiazol-2-yl] amide]",18
